Experiments:
[1] = at 37° C.; cited from earlier work
[2] = Ex-vivo contrast-enhanced MRI (3 Tesla, T1 inversion recovery) measurement of gadodiamide partition coefficient / relative distribution volume in postmortem myocardium samples; type: in vitro ADME, human; details: 24 hours incubation in ~3 mM gadodiamide-saline solution
Experimental: As an example of the above-described methodology, eight samples of human myocardium were obtained postmortem and a fast spin-echo sequence (3 Tesla) with non-slice selective inversion pulse performed before and after immersion in a gadodiamide saline solution for determination of the gadodiamide partition coefficient. T1 values were calculated from the inversion recovery signal curves. The same samples were fixed in formalin, and the collagen volume fraction was determined by the picrosirius red method using a semi-automated, polarized, digital microscopy system. […] Moreover, there was a significant positive correlation between the two methods, across all three histological categories of myocardial fibrosis (r=0.73; p=0.017). Thus, these findings indicate an expanded potential for contrast enhanced MRI as a novel, non-invasive alternative to histological evaluation, for the quantification of both interstitial and replacement myocardial fibrosis.
In accordance with an exemplary embodiment as outlined briefly above, eight samples of myocardium were obtained from deceased patients. Each sample of ventricular myocardium was 1 to 2 cm in thickness, and cut at the mid-level of the ventricular septum to include left and right ventricular free walls. All samples were stored at −80° C. until time of analysis.
A pre-contrast MRI was performed approximately 10-12 hours after thawing each sample. […] The longitudinal relaxation time T1 of myocardial tissue and saline was measured with a spin-echo MRI pulse sequence with non-slice-selective inversion pulse, and for 12-15 inversion delays (inversion times in the range from T1=50 to 2000 ms). […]
After the first MRI scan, the sample was incubated at 3-4° C. in a gadodiamide—saline solution for 24 hours (initial gadodiamide concentration in saline before immersion of tissue slice was ˜3 mM; saline R1 at 3 Tesla after 24 hours incubation: 3.9±0.3 s^−1). […] The effects of duration of thawing were also evaluated. […] Accordingly, these two sets of samples with different durations of thawing were analyzed separately. […]

CNC(=O)CN(CCN(CCN(CC(=O)[O-])CC(=O)NC)CC(=O)[O-])CC(=O)[O-].[Gd+3] [gadodiamide]
osmolality [1]: 789 mOsmol/kg water
mean gadodiamide distribution volume (with 95% confidence interval) ([2]; interstitial fibrosis myocardium): 0.43+/−0.22
mean gadodiamide distribution volume (with 95% confidence interval) ([2]; normal myocardium): 0.17+/−0.05
mean gadodiamide distribution volume (with 95% confidence interval) ([2]; replacement fibrosis myocardium): 0.46+/−0.05
